The structures appear in SMILES notation.

This is an account of results in patent US10611730B2, “Benzimidazolone and benzothiazolone compounds and their use as AMPA receptor modulators” (Janssen Pharmaceutica NV, priority 2015, dated 2020).

In this test the target is TARP γ8 dependent AMPA receptor (GluA1o-g8 fusion channel) (Homo sapiens (Human), UniProt P42261+Q8WXS5). Description: Calcium flux assay (FLIPR), HEK293 cells expressing GRIA1o-CACNG8 fusion. The format is cell-based. To be noted: inhibition of calcium flux after 15 μM glutamate, read-out: GluR1-γ8 pIC50 (converted). Summed up: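 Stable HEK293 clone expressing GluA1o-γ8 fusion (1:1 stoichiometry), loaded with Calcium-5/6 dye plus test compound; glutamate-evoked fluorescence normalized to control wells. Concentration-response fitted to four-parameter logistic, midpoint taken as inhibitory potency.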
Chain of TARP γ8 dependent AMPA receptor (GluA1o-g8 fusion channel) (P42261 other isoform, or with tags, fused parts or gaps): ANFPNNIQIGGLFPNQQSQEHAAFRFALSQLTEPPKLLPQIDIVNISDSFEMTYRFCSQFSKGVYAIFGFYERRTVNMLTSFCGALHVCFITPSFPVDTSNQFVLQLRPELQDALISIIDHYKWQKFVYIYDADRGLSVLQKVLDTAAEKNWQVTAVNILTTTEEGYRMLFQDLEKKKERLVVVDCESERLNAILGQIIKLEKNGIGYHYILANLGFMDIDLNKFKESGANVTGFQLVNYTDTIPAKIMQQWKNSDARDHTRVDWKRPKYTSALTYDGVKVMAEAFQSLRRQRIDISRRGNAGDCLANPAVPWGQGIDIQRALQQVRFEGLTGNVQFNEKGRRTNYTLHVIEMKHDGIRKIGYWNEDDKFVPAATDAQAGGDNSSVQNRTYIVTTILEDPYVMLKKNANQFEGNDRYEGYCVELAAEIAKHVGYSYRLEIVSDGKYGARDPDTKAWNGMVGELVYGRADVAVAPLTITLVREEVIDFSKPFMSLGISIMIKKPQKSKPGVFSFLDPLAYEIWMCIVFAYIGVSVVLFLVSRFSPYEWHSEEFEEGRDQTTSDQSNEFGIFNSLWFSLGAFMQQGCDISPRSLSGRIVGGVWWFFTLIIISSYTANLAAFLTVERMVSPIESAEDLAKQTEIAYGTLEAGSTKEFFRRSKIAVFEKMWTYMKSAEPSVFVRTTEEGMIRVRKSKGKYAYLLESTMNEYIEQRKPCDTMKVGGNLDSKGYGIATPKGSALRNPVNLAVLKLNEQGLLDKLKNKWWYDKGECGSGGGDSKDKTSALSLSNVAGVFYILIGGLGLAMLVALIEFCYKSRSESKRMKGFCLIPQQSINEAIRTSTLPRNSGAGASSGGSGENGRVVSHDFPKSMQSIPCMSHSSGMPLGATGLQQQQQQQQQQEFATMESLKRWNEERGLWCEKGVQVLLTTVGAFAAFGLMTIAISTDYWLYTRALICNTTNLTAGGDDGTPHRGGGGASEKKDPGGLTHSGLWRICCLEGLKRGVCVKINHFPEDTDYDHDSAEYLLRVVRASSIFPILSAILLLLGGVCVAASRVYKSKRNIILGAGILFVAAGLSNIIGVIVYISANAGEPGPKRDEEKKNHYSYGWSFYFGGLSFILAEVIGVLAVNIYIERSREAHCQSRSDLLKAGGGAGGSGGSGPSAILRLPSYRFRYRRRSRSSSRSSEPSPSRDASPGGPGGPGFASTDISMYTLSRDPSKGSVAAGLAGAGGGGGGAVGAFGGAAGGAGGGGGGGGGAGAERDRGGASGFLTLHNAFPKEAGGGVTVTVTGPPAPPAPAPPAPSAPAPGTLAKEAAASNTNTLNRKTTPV
(In general: Calcium flux is commonly read through the fluorescence of an indicator in the cells.)
With `Cc1c(C(=O)Nc2ccccc2)cccc1-c1ccc2[nH]c(=O)[nH]c2c1` [Example 79, 2-Methyl-3-(2-oxo-1,3-dihydrobenzimidazol-5-yl)-N-phenyl-benzamide], the IC50 is 794 nM. Regarding `N#Cc1ccc(OC(F)(F)F)c(-c2ccc3[nH]c(=O)[nH]c3c2)c1Cl` [Example 208, 2-Chloro-3-(2-oxo-1,3-dihydrobenzimidazol-5-yl)-4-(trifluoromethoxy)benzonitrile], the IC50 was 15.8 nM. Consider `Cc1c(CN2CCOC(C(F)(F)F)C2)cccc1-c1ccc2[nH]c(=O)[nH]c2c1` (racemic) [Example 151, (±)-5-[2-Methyl-3-[[2-(trifluoromethyl)morpholin-4-yl]methyl]phenyl]-1,3-dihydrobenzimidazol-2-one], for which the IC50 is 31.6 nM.

Take `Cc1cc(-c2c(Cl)cccc2OC(F)(F)F)cc2[nH]c(=O)[nH]c12` [Example 211, 6-(2-Chloro-6-(trifluoromethoxy)phenyl)-4-methyl-1H-benzo[d]imidazol-2(3H)-one]: the IC50 is 0.1 nM.

`COc1cccc(OCC(F)(F)F)c1-c1ccc2[nH]c(=O)[nH]c2c1` [Example 103, 5-[2-Methoxy-6-(2,2,2-trifluoroethoxy)phenyl]-1,3-dihydrobenzimidazol-2-one]: the IC50 is 398 nM. The figure for `CC(C)(C)OC(=O)N1CC(Oc2cccc(-c3ccc4[nH]c(=O)[nH]c4c3)c2Cl)C1` [Example 114, tert-Butyl 3-[2-chloro-3-(2-oxo-1,3-dihydrobenzimidazol-5-yl)phenoxy]azetidine-1-carboxylate] is 200 nM; for `CC(C)Oc1cccc(F)c1-c1ccc2[nH]c(=O)[nH]c2c1` [Example 11, 5-(2-Fluoro-6-isopropoxy-phenyl)-1,3-dihydrobenzimidazol-2-one] it is 501 nM; for `Cc1c(-c2ccc3[nH]c(=O)[nH]c3c2)cccc1-c1ncon1` [Example 206, 5-[2-Methyl-3-(1,2,4-oxadiazol-3-yl)phenyl]-1,3-dihydrobenzimidazol-2-one] it is 31.6 nM.

`N#Cc1cccc(Cl)c1-c1ccc2[nH]c(=O)[nH]c2c1` [Example 56, 3-Chloro-2-(2-oxo-1,3-dihydrobenzimidazol-5-yl)benzonitrile]: the IC50 was 631 nM. Turning to `Cc1cccc(-c2ccccc2F)c1-c1ccc2[nH]c(=O)[nH]c2c1` [Example 180, 5-[2-(2-Fluorophenyl)-6-methyl-phenyl]-1,3-dihydrobenzimidazol-2-one], the IC50 is 316 nM. The same measure for `O=c1[nH]c2ccc(-c3c(Cl)cccc3-c3ccc(F)nc3)cc2[nH]1` [Example 167, 5-[2-Chloro-6-(6-fluoro-3-pyridyl)phenyl]-1,3-dihydrobenzimidazol-2-one]: 316 nM; for `Cc1cccc(-c2ccc3[nH]c(=O)[nH]c3c2)c1C` [Example 1, 5-(2,3-Dimethylphenyl)-1,3-dihydrobenzimidazol-2-one]: 251 nM; for `COc1ccc(-c2cccc(CC#N)c2-c2ccc3[nH]c(=O)[nH]c3c2)cc1` [Example 137, 2-[3-(4-Methoxyphenyl)-2-(2-oxo-1,3-dihydrobenzimidazol-5-yl)phenyl]acetonitrile]: 316 nM. For `O=c1[nH]c2ccc(-c3c(Cl)cccc3-c3ccc(F)cc3)cc2[nH]1` [Example 163, 5-[2-Chloro-6-(4-fluorophenyl)phenyl]-1,3-dihydrobenzimidazol-2-one], the IC50 is 20 nM. On to `COC(=O)c1cccc(-c2ccc3[nH]c(=O)[nH]c3c2)c1OC` [Example 48, Methyl 2-methoxy-3-(2-oxo-1,3-dihydrobenzimidazol-5-yl)benzoate], for which the IC50 is 6310 nM. The figure for `CC(C)Oc1cccc(-c2ccc3[nH]c(=O)[nH]c3c2)c1C#N` [Example 62, 2-Isopropoxy-6-(2-oxo-1,3-dihydrobenzimidazol-5-yl)benzonitrile] is 200 nM. Turning to `N#Cc1ccc(Cl)c(-c2ccc3[nH]c(=O)[nH]c3c2)c1OC(F)(F)F` [Example 209, 4-Chloro-3-(2-oxo-1,3-dihydrobenzimidazol-5-yl)-2-(trifluoromethoxy)benzonitrile], the IC50 is 15.8 nM. The figure for `O=c1[nH]c2ccc(-c3c(Cl)cccc3OCC(F)F)cc2[nH]1` [Example 96, 5-[2-Chloro-6-(2,2-difluoroethoxy)phenyl]-1,3-dihydrobenzimidazol-2-one] is 63.1 nM; for `O=c1[nH]c2ccc(-c3ccccc3-c3ccccc3)cc2[nH]1` [Example 5, 5-(2-Phenylphenyl)-1,3-dihydrobenzimidazol-2-one] it is 100 nM; for `Cc1c(-c2ccc3[nH]c(=O)sc3c2)cccc1-c1nc(C2CC2)no1` [Example 202, 6-[3-(3-Cyclopropyl-1,2,4-oxadiazol-5-yl)-2-methyl-phenyl]-3H-1,3-benzothiazol-2-one] it is 3980 nM. On to `Cc1c(CN2CCCCC2)cccc1-c1ccc2[nH]c(=O)[nH]c2c1` [Example 147, 5-[2-Methyl-3-(1-piperidylmethyl)phenyl]-1,3-dihydrobenzimidazol-2-one], for which the IC50 was 1580 nM.

As to `O=c1[nH]c2ccc(-c3c(Cl)cccc3-c3cccnc3)cc2[nH]1` [Example 165, 5-[2-Chloro-6-(3-pyridyl)phenyl]-1,3-dihydrobenzimidazol-2-one], the IC50 was 126 nM. Take `O=c1[nH]c2ccc(-c3cccc(OCC(F)F)c3Cl)cc2[nH]1` [Example 112, 5-[2-Chloro-3-(2,2-difluoroethoxy)phenyl]-1,3-dihydrobenzimidazol-2-one]: the IC50 was 126 nM. In the case of `O=c1[nH]c2ccc(-c3c(F)cccc3OCc3ccccc3)cc2[nH]1` [Example 26, 5-(2-Benzyloxy-6-fluoro-phenyl)-1,3-dihydrobenzimidazol-2-one], the IC50 is 100 nM. As for `COCCn1cc(-c2cccc(Cl)c2-c2ccc3[nH]c(=O)[nH]c3c2)cn1` [Example 172, 5-[2-Chloro-6-[1-(2-methoxyethyl)pyrazol-4-yl]phenyl]-1,3-dihydrobenzimidazol-2-one], the IC50 is 2000 nM.

With `O=c1[nH]c2cc(F)c(-c3c(Cl)cccc3OC(F)(F)F)cc2s1` [Example 210, 6-[2-Chloro-6-(trifluoromethoxy)phenyl]-5-fluoro-3H-1,3-benzothiazol-2-one], the IC50 was 63.1 nM. On to `O=c1[nH]c2ccc(-c3cccc(Cl)c3C(F)(F)F)cc2[nH]1` [Example 34, 5-[3-Chloro-2-(trifluoromethyl)phenyl]-1,3-dihydrobenzimidazol-2-one], for which the IC50 was 251 nM. The same measure for `Cc1c(CN2CCN(C(=O)OC(C)(C)C)CC2)cccc1-c1ccc2[nH]c(=O)[nH]c2c1` [Example 155, tert-Butyl 4-[[2-methyl-3-(2-oxo-1,3-dihydrobenzimidazol-5-yl)phenyl]methyl]piperazine-1-carboxylate]: 316 nM; for `COc1cccc(OCc2ccccc2)c1-c1ccc2[nH]c(=O)[nH]c2c1` [Example 105, 5-(2-Benzyloxy-6-methoxy-phenyl)-1,3-dihydrobenzimidazol-2-one]: 39.8 nM; for `N#CCc1ccc(Cl)c(Cl)c1-c1ccc2[nH]c(=O)[nH]c2c1` [Example 122, 2-[3,4-Dichloro-2-(2-oxo-1,3-dihydrobenzimidazol-5-yl)phenyl]acetonitrile]: 7.94 nM.

With `CC(C)Oc1cccc(C(F)(F)F)c1-c1ccc2[nH]c(=O)[nH]c2c1` [Example 108, 5-[2-Isopropoxy-6-(trifluoromethyl)phenyl]-1,3-dihydrobenzimidazol-2-one], the IC50 was 79.4 nM. The same measure for `CC(C)c1ccccc1-c1ccc2[nH]c(=O)[nH]c2c1` [Example 6, 5-(2-Isopropylphenyl)-1,3-dihydrobenzimidazol-2-one]: 316 nM; for `CC(C)Oc1ccccc1-c1ccc2[nH]c(=O)[nH]c2c1` [Example 8, 5-(2-Isopropoxyphenyl)-1,3-dihydrobenzimidazol-2-one]: 2000 nM; for `Cc1cc(Cl)cc(C)c1-c1ccc2[nH]c(=O)[nH]c2c1` [Example 37, 5-(4-Chloro-2,6-dimethyl-phenyl)-1,3-dihydrobenzimidazol-2-one]: 794 nM. Turning to `COc1cccc(OCc2ccc(F)cc2)c1-c1ccc2[nH]c(=O)[nH]c2c1` [Example 106], the IC50 was 39.8 nM. In the case of `Cc1c(CN2CCCC2)cccc1-c1ccc2[nH]c(=O)[nH]c2c1` [Example 156, 5-[2-Methyl-3-(pyrrolidin-1-ylmethyl)phenyl]-1,3-dihydrobenzimidazol-2-one], the IC50 was 6310 nM. The figure for `O=c1[nH]c2ccc(-c3c(Cl)ccc(-c4nnco4)c3Cl)cc2[nH]1` [Example 192, 5-[2,6-Dichloro-3-(1,3,4-oxadiazol-2-yl)phenyl]-1,3-dihydrobenzimidazol-2-one] is 631 nM; for `Cc1c(-c2ccc3[nH]c(=O)sc3c2)cccc1-c1ncon1` [Example 207, 6-[2-Methyl-3-(1,2,4-oxadiazol-3-yl)phenyl]-3H-1,3-benzothiazol-2-one] it is 126 nM.

In the case of `O=c1[nH]c2ccc(-c3c(Cl)cccc3OC(F)F)cc2[nH]1` [Example 94, 5-[2-Chloro-6-(difluoromethoxy)phenyl]-1,3-dihydrobenzimidazol-2-one], the IC50 is 31.6 nM. The same measure for `O=c1[nH]c2ccc(-c3c(Cl)cccc3-c3ccccc3)cc2[nH]1` [Example 162, 5-(2-Chloro-6-phenyl-phenyl)-1,3-dihydrobenzimidazol-2-one]: 20 nM; for `O=c1[nH]c2ccc(-c3cccc(OC(F)F)c3Cl)cc2[nH]1` [Example 113, 5-[2-Chloro-3-(difluoromethoxy)phenyl]-1,3-dihydrobenzimidazol-2-one]: 79.4 nM; for `COc1cccc(OC)c1-c1ccc2[nH]c(=O)[nH]c2c1` [Example 7, 5-(2,6-Dimethoxyphenyl)-1,3-dihydrobenzimidazol-2-one]: 1260 nM. The figure for `CC(C)Oc1ccc(C(F)(F)F)cc1-c1ccc2[nH]c(=O)[nH]c2c1` [Example 22, 5-[2-Isopropoxy-5-(trifluoromethyl)phenyl]-1,3-dihydrobenzimidazol-2-one] is 316 nM.
